From patent US9980486B2, “Herbicidal quinolines” (Syngenta Participations AG, priority 2014, dated 2018) come the findings set out here.

Holding throughout (assay): Experiment B1 glasshouse herbicide test, pre- and post-emergence, percentage damage
What all share (assay type): in vivo
Holding throughout (details): 1000 g/h, evaluated after 13 days

For assay [1], the system named is Amaranthus retoflexus (AMARE). On the procedure: (§1) Seeds of a variety of test species are sown in standard soil in pots (Lolium perenne (LOLPE), Solanum nigrum (SOLNI), Amaranthus retoflexus (AMARE), Setaria faberi (SETFA), Echinochloa crus-galli (ECHCG), Ipomoea hederacea (IPOHE)). After cultivation for one day (pre-emergence) or after 8 days cultivation (post-emergence) under controlled conditions in a glasshouse (at 24/16° C., day/night; 14 hours light; 65% humidity), the plants are sprayed with an aqueous spray solution derived from the formulation of the technical active ingredient in acetone/water (50:50) solution containing 0.5% Tween 20 (polyoxyethelyene sorbitan monolaurate, CAS RN 9005-64-5). […] The test plants are then grown in a glasshouse under controlled conditions in a glasshouse (at 24/16° C., day/night; 14 hours light; 65% humidity) and watered twice daily. After 13 days for pre and post-emergence, the test is evaluated for the percentage damage caused to the plant. The biological activities are shown in the following table on a five point scale (5=80-100%; 4=60-79%; 3=40-59%; 2=20-39%; 1=0-19%).

The test system of assay [2] is Echinochloa crus-galli (ECHCG). The protocol: as §1
In assay [3] the test system is Ipomoea hederacea (IPOHE). On the procedure:
as §1

The subject of another assay is Lolium perenne (LOLPE). The protocol: as §1
The subject of another assay is Setaria faberi (SETFA). On the procedure:
as §1

For the next assay, the system named is Solanum nigrum (SOLNI). The protocol:
as §1

[4] abbreviates: POST Application (post-emergence, after 8 days cultivation).
The mark [5] stands for this setting: PRE Application (pre-emergence, after cultivation for one day).

Turning to `CSc1ccc(-c2c(C)c(C(=O)Nc3nnnn3C)cc3cccnc23)cc1` [Compound 1.030, 7-methyl-8-(4-methylsulfanylphenyl)-N-(1-methyltetrazol-5-yl)quinoline-6-carboxamide], the “percentage damage caused to the plant, five point scale, AMARE” value (from here on “percentage damage caused … AMARE”) in assay [1] (setting [4]) and in assay [1] (setting [5]) was 5 (5=80-100%) in each case. The “percentage damage caused to the plant, five point scale, ECHCG” value (shortened to “percentage damage caused … ECHCG”) in assay [2] (setting [4]) and in assay [2] (setting [5]) was 5 (5=80-100%) in each case. Also, the “percentage damage caused to the plant, five point scale, IPOHE” value (“percentage damage caused … IPOHE” below) in assay [3] (setting [4]) is reported as 5 (5=80-100%); in assay [3] (setting [5]), 4 (4=60-79%). Also, the “percentage damage caused to the plant, five point scale, LOLPE” value (from here on “percentage damage caused … LOLPE”) in the assay on Lolium perenne (LOLPE) (setting [4]) and in the assay on Lolium perenne (LOLPE) (setting [5]) was 4 (4=60-79%) in each case. In addition, the “percentage damage caused to the plant, five point scale, SETFA” value (shortened to “percentage damage caused … SETFA”) in the assay on Setaria faberi (SETFA) (setting [4]) and in the assay with Setaria faberi (SETFA) (setting [5]) was 5 (5=80-100%) in each case. For the same molecule, the “percentage damage caused to the plant, five point scale, SOLNI” value (“percentage damage caused … SOLNI” below) in the assay with Solanum nigrum (SOLNI) (setting [4]) and in the assay on Solanum nigrum (SOLNI) (setting [5]) was 5 (5=80-100%) each time.

Consider `Cc1c(C(=O)Nc2nnnn2C)cc2cccnc2c1-c1ccc(S(C)(=O)=O)cc1` [Compound 1.031, 7-methyl-8-(4-methylsulfonylphenyl)-N-(1-methyltetrazol-5-yl)quinoline-6-carboxamide], for which the “percentage damage caused … AMARE” value in assay [1] (setting [4]) and in assay [1] (setting [5]) was 5 (5=80-100%) in each case. Also, the “percentage damage caused … ECHCG” value in assay [2] (setting [4]) and in assay [2] (setting [5]) was 5 (5=80-100%) each time. Also, the “percentage damage caused … IPOHE” value in assay [3] (setting [4]) and in assay [3] (setting [5]) was 5 (5=80-100%) each time. Also, the “percentage damage caused … LOLPE” value with Lolium perenne (LOLPE) (setting [4]) and in the assay with Lolium perenne (LOLPE) (setting [5]) was 5 (5=80-100%) throughout. Besides, the “percentage damage caused … SETFA” value in the assay with Setaria faberi (SETFA) (setting [4]) and in the assay on Setaria faberi (SETFA) (setting [5]) was 5 (5=80-100%) in each case. Also, the “percentage damage caused … SOLNI” value in the assay with Solanum nigrum (SOLNI) (setting [4]) and in the assay with Solanum nigrum (SOLNI) (setting [5]) was 5 (5=80-100%) each time.

On to `CSc1c(C(=O)Nc2nnnn2C)cc2cccnc2c1-c1ccccc1` [Compound 1.032, 7-methylsulfanyl-N-(1-methyltetrazol-5-yl)-8-phenyl-quinoline-6-carboxamide], for which the “percentage damage caused … AMARE” value in assay [1] (setting [4]) and in assay [1] (setting [5]) was 5 (5=80-100%) throughout. Further, the “percentage damage caused … ECHCG” value in assay [2] (setting [4]) and in assay [2] (setting [5]) was 5 (5=80-100%) each time. Besides, the “percentage damage caused … IPOHE” value in assay [3] (setting [4]) and in assay [3] (setting [5]) was 5 (5=80-100%) in each case. Besides, the “percentage damage caused … LOLPE” value with Lolium perenne (LOLPE) (setting [4]) and in the assay with Lolium perenne (LOLPE) (setting [5]) was 5 (5=80-100%) each time. Also, the “percentage damage caused … SETFA” value in the assay on Setaria faberi (SETFA) (setting [4]) and in the assay on Setaria faberi (SETFA) (setting [5]) was 5 (5=80-100%) in each case. The “percentage damage caused … SOLNI” value with Solanum nigrum (SOLNI) (setting [4]) and with Solanum nigrum (SOLNI) (setting [5]) was 5 (5=80-100%) each time.

As for `O=C(Nc1nnnn1-c1ccccc1)c1cc2cccnc2c(-c2ccccc2)c1C(F)(F)F` [Compound 1.033], the “percentage damage caused … AMARE” value in assay [1] (setting [4]) and in assay [1] (setting [5]) was 5 (5=80-100%) each time. The “percentage damage caused … ECHCG” value in assay [2] (setting [4]) is recorded as 2 (2=20-39%); in assay [2] (setting [5]) it was 1 (1=0-19%). In addition, the “percentage damage caused … IPOHE” value in assay [3] (setting [4]) was 5 (5=80-100%); in assay [3] (setting [5]) it was 3 (3=40-59%). Further, the “percentage damage caused … LOLPE” value in the assay with Lolium perenne (LOLPE) (setting [4]) and with Lolium perenne (LOLPE) (setting [5]) was 1 (1=0-19%) throughout. Moreover, the “percentage damage caused … SETFA” value with Setaria faberi (SETFA) (setting [4]) is recorded as 2 (2=20-39%); with Setaria faberi (SETFA) (setting [5]), 1 (1=0-19%). Also, the results for the “percentage damage caused … SOLNI” value in the assay with Solanum nigrum (SOLNI) (setting [4]) and with Solanum nigrum (SOLNI) (setting [5]) were 5 (5=80-100%) and 4 (4=60-79%), respectively.

Consider `COc1ccc(-c2c(C)c(C(=O)Nc3nnnn3C)cc3cccnc23)cc1` [Compound 1.034], for which the “percentage damage caused … AMARE” value in assay [1] (setting [4]) and in assay [1] (setting [5]) was 5 (5=80-100%) each time. Also, the “percentage damage caused … ECHCG” value in assay [2] (setting [4]) and in assay [2] (setting [5]) was 5 (5=80-100%) each time. Besides, the “percentage damage caused … IPOHE” value in assay [3] (setting [4]) and in assay [3] (setting [5]) was 5 (5=80-100%) throughout. In addition, the “percentage damage caused … LOLPE” value in the assay with Lolium perenne (LOLPE) (setting [4]) is 4 (4=60-79%); with Lolium perenne (LOLPE) (setting [5]), 5 (5=80-100%). Also, the “percentage damage caused … SETFA” value with Setaria faberi (SETFA) (setting [4]) and with Setaria faberi (SETFA) (setting [5]) was 5 (5=80-100%) throughout. In addition, the “percentage damage caused … SOLNI” value in the assay with Solanum nigrum (SOLNI) (setting [4]) and in the assay on Solanum nigrum (SOLNI) (setting [5]) was 5 (5=80-100%) throughout.

With `Cc1c(C(=O)Nc2nnnn2C)cc2cccnc2c1-c1ccc(F)cc1` [Compound 1.035], the “percentage damage caused … AMARE” value in assay [1] (setting [4]) and in assay [1] (setting [5]) was 5 (5=80-100%) in each case. The “percentage damage caused … ECHCG” value in assay [2] (setting [4]) and in assay [2] (setting [5]) was 5 (5=80-100%) each time. The “percentage damage caused … IPOHE” value in assay [3] (setting [4]) and in assay [3] (setting [5]) was 5 (5=80-100%) throughout. The “percentage damage caused … LOLPE” value in the assay on Lolium perenne (LOLPE) (setting [4]) was 4 (4=60-79%); with Lolium perenne (LOLPE) (setting [5]), 5 (5=80-100%). In addition, the “percentage damage caused … SETFA” value in the assay on Setaria faberi (SETFA) (setting [4]) and in the assay with Setaria faberi (SETFA) (setting [5]) was 5 (5=80-100%) each time. For the same molecule, the “percentage damage caused … SOLNI” value with Solanum nigrum (SOLNI) (setting [4]) and in the assay with Solanum nigrum (SOLNI) (setting [5]) was 5 (5=80-100%) in each case.

Turning to `Cc1c(C(=O)Nc2nnnn2C)cc2cccnc2c1-c1ccc(Cl)cc1` [Compound 1.036], the “percentage damage caused … AMARE” value in assay [1] (setting [4]) and in assay [1] (setting [5]) was 5 (5=80-100%) each time. Moreover, the “percentage damage caused … ECHCG” value in assay [2] (setting [4]) and in assay [2] (setting [5]) was 5 (5=80-100%) in each case. The “percentage damage caused … IPOHE” value in assay [3] (setting [4]) and in assay [3] (setting [5]) was 5 (5=80-100%) each time. For the same molecule, the “percentage damage caused … LOLPE” value in the assay on Lolium perenne (LOLPE) (setting [4]) and in the assay with Lolium perenne (LOLPE) (setting [5]) was 4 (4=60-79%) throughout. Besides, the “percentage damage caused … SETFA” value with Setaria faberi (SETFA) (setting [4]) and in the assay on Setaria faberi (SETFA) (setting [5]) was 5 (5=80-100%) each time. Also, the “percentage damage caused … SOLNI” value with Solanum nigrum (SOLNI) (setting [4]) and with Solanum nigrum (SOLNI) (setting [5]) was 5 (5=80-100%) in each case.

As to `COc1ccc(-c2c(C)c(C(=O)Nc3nnnn3C)cc3ccc(C)nc23)cc1` [Compound 1.037], the “percentage damage caused … AMARE” value in assay [1] (setting [4]) and in assay [1] (setting [5]) was 5 (5=80-100%) throughout. Besides, the “percentage damage caused … ECHCG” value in assay [2] (setting [4]) and in assay [2] (setting [5]) was 5 (5=80-100%) throughout. Moreover, the “percentage damage caused … IPOHE” value in assay [3] (setting [4]) was 5 (5=80-100%); in assay [3] (setting [5]), 4 (4=60-79%). For the same molecule, the “percentage damage caused … LOLPE” value in the assay with Lolium perenne (LOLPE) (setting [4]) was 5 (5=80-100%); in the assay with Lolium perenne (LOLPE) (setting [5]), 3 (3=40-59%). The “percentage damage caused … SETFA” value in the assay with Setaria faberi (SETFA) (setting [4]) and in the assay with Setaria faberi (SETFA) (setting [5]) was 5 (5=80-100%) throughout. For the same molecule, the “percentage damage caused … SOLNI” value in the assay on Solanum nigrum (SOLNI) (setting [4]) and in the assay on Solanum nigrum (SOLNI) (setting [5]) was 5 (5=80-100%) in each case.

As to `Cc1ccc2cc(C(=O)Nc3nnnn3C)c(C)c(-c3ccc(S(C)(=O)=O)cc3)c2n1` [Compound 1.038], the “percentage damage caused … AMARE” value in assay [1] (setting [4]) and in assay [1] (setting [5]) was 5 (5=80-100%) in each case. The “percentage damage caused … ECHCG” value in assay [2] (setting [4]) and in assay [2] (setting [5]) was 5 (5=80-100%) each time. The results for the “percentage damage caused … IPOHE” value in assay [3] (setting [4]) and in assay [3] (setting [5]) were 5 (5=80-100%) and 4 (4=60-79%), respectively. The “percentage damage caused … LOLPE” value in the assay on Lolium perenne (LOLPE) (setting [4]) was 5 (5=80-100%); with Lolium perenne (LOLPE) (setting [5]), 4 (4=60-79%). In addition, the “percentage damage caused … SETFA” value with Setaria faberi (SETFA) (setting [4]) and in the assay with Setaria faberi (SETFA) (setting [5]) was 5 (5=80-100%) in each case. In addition, the “percentage damage caused … SOLNI” value with Solanum nigrum (SOLNI) (setting [4]) and in the assay with Solanum nigrum (SOLNI) (setting [5]) was 5 (5=80-100%) each time.
